Measurements: patent US10660877B2 (BRISTOL-MYERS SQUIBB COMPANY, priority 2016, dated 2020)
Like-named read-outs stand apart in the source and are kept apart here.

Tests used:
human TLR7 = human TLR7 (Homo sapiens (Human), UniProt Q9NYK1); assay: TLR7 inhibition reporter assay (HEK-Blue cells, SEAP reporter, gardiquimod stimulation); type: cell-based
human TLR9 = human TLR9 (Homo sapiens (Human), UniProt Q9NR96); assay: TLR9 inhibition reporter assay (HEK-Blue cells, SEAP reporter, ODN2006 stimulation);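 further: compounds tested over 0.05 nM to 50 µM, 22 h incubation, inhibition taken as SEAP signal drop from agonist plus DMSO wells toward a known inhibitor control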
human TLR8 = human TLR8 (Homo sapiens (Human), UniProt Q9NR97); assay: TLR8 inhibition reporter assay (HEK-Blue cells, SEAP reporter, R848 stimulation);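 further: compounds tested from 0.05 nM to 50 µM, 22 h at 37 °C, SEAP measured with HEK-Blue Detection, inhibition relative to agonist plus DMSO versus a known inhibitor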
[1] = HEK-Blue cells overexpressing human TLR7, gardiquimod 7.5 μM
[2] = read-out: TLR9 IC50, HEK-Blue cells overexpressing human TLR9, ODN2006 5 nM
[3] = read-out: TLR8 IC50, HEK-Blue cells overexpressing human TLR8, R848 15.9 μM

Sequence of human TLR9 (Q9NR96 26-1032): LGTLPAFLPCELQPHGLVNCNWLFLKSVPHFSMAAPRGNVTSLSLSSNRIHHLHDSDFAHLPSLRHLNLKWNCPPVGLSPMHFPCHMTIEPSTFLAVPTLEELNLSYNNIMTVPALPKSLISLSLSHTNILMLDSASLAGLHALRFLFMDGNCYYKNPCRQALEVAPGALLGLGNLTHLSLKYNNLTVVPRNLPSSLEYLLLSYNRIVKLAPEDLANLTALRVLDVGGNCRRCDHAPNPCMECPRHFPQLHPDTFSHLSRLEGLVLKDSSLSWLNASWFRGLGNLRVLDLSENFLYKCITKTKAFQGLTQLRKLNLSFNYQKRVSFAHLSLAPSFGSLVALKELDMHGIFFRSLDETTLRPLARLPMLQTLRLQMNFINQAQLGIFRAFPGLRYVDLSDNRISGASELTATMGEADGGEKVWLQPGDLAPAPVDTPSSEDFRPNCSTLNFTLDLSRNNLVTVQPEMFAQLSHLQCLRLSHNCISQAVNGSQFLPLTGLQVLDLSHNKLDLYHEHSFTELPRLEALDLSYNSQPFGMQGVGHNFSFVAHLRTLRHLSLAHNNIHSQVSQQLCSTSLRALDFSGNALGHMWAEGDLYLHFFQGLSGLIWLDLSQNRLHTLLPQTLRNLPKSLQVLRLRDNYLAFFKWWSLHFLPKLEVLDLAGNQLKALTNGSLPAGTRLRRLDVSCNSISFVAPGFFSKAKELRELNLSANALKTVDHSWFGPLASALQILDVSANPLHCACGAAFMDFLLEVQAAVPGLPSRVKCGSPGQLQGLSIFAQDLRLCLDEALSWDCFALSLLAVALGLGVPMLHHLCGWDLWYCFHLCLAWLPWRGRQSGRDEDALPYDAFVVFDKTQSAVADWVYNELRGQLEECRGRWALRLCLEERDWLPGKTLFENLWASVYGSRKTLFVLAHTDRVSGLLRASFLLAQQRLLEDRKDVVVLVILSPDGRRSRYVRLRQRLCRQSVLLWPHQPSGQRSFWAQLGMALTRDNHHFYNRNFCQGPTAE
Sequence of human TLR7 (Q9NYK1 27-1049): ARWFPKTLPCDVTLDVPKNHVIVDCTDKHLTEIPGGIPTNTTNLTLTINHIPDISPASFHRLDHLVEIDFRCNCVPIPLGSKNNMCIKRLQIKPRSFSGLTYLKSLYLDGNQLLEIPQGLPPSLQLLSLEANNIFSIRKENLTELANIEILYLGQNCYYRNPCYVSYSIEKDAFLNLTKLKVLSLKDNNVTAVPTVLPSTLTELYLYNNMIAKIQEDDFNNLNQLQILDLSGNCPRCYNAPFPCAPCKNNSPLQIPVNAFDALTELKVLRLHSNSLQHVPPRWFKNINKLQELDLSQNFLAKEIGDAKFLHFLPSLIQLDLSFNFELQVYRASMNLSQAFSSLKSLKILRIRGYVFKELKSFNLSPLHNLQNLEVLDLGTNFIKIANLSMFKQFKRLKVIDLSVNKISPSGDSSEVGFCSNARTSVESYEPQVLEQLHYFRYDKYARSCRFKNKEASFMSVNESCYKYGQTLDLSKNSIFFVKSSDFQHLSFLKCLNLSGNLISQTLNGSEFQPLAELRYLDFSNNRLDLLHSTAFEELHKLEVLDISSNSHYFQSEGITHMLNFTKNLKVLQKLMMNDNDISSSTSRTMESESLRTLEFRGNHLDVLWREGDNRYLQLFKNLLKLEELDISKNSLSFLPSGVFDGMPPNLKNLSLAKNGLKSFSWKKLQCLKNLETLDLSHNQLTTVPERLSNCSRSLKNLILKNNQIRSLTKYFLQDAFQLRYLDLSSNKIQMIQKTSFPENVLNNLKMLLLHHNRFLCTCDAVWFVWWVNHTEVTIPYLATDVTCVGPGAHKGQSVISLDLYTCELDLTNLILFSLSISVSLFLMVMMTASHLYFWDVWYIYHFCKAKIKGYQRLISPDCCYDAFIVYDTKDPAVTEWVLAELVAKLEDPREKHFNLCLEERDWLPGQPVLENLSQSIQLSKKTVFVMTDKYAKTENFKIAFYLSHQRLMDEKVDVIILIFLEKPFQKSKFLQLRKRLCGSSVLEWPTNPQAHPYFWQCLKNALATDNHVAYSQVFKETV
Sequence of human TLR8 (Q9NR97 27-1041): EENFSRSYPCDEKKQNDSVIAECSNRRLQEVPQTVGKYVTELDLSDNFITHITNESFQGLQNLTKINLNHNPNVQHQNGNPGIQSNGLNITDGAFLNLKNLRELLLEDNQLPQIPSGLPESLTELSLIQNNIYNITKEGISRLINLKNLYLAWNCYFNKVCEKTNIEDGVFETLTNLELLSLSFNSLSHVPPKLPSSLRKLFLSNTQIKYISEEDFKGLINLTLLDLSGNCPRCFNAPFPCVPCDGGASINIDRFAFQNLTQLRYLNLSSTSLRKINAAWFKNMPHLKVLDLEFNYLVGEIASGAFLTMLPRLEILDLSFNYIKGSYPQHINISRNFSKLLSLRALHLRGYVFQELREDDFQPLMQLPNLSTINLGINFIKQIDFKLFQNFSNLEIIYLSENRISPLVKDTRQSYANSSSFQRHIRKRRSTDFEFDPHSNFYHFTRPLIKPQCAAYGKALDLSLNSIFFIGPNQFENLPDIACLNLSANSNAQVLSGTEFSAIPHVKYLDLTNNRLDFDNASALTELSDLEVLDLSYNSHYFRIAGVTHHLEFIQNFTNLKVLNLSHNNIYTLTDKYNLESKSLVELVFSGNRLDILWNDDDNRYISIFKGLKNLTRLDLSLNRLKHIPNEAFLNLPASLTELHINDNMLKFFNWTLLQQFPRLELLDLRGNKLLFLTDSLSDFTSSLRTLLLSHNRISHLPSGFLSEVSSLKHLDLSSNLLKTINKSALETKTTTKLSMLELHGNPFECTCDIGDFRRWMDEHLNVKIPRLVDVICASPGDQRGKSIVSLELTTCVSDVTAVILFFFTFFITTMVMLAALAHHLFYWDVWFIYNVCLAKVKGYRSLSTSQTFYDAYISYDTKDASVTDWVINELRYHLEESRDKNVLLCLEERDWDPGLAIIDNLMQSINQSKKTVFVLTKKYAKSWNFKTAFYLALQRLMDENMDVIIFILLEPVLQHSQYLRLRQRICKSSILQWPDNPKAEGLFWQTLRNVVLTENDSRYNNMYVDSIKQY

Row | SMILES | IC50 (human TLR7; [1]) | IC50 (human TLR9; [2]) | IC50 (human TLR8; [3]) | IC50 (human TLR7; HEK-Blue cells, gardiquimod 7.5 μM) | IC50 (human TLR9; read-out: TLR9 IC50, HEK-Blue cells, ODN2006 5 nM) | IC50 (human TLR8; read-out: TLR8 IC50, HEK-Blue cells, R848 15.9 μM)
1 | Cc1cc(-c2[nH]c3ccc(C4CCN(CC(=O)N(C)C(C)(C)C)CC4)cc3c2C(C)C)cc(C)n1 [Example 250, N-(tert-butyl)-2-(4-(2-(2,6-dimethylpyridin-4-yl)-3-isopropyl-1H-indol-5-yl)piperidin-1-yl)-N-methylacetamide] | 11.7 nM | 1200 nM | 36.4 nM |  |  | 
2 | Cc1cc(-c2[nH]c3ccc(C4CCN(C(=O)CN(C)CC(C)C)CC4)cc3c2C(C)C)cc(C)n1 [Example 355, 1-(4-(2-(2,6-dimethylpyridin-4-yl)-3-isopropyl-1H-indol-5-yl)piperidin-1-yl)-2-(isobutyl (methyl)amino)ethan-1-one] | 8.8 nM | 1070 nM | 34 nM |  |  | 
3 | Cc1cc(-c2[nH]c3ccc(C4CCN(CC(=O)N5CCC(F)CC5)CC4)cc3c2C(C)C)cc(C)n1 [Example 283, 2-(4-(2-(2,6-dimethylpyridin-4-yl)-3-isopropyl-1H-indol-5-yl)piperidin-1-yl)-1-(4-fluoropiperidin-1-yl)ethan-1-one] | 2.6 nM | 248 nM | 8.9 nM |  |  | 
4 | Cc1c(-c2[nH]c3ccc(C4CCNCC4)cc3c2C(C)C)ccnc1Cl [Example 35, 2-(2-chloro-3-methylpyridin-4-yl)-3-isopropyl-5-(piperidin-4-yl)-1H-indole] | 26.7 nM | 4080 nM | 28.8 nM |  |  | 
5 | Cc1cc(-c2[nH]c3ccc(C4CCN(CC(=O)NC5(C)CCC5)CC4)cc3c2C(C)C)cc(C)n1 [Example 243, 2-(4-(2-(2,6-dimethylpyridin-4-yl)-3-isopropyl-1H-indol-5-yl)piperidin-1-yl)-N-(1-methylcyclobutyl)acetamide] | 10 nM | 817 nM | 20 nM |  |  | 
6 | Cc1cc(-c2[nH]c3ccc(C4CCN(C(=O)CN5CCOC5=O)CC4)cc3c2C(C)C)cc(C)n1 [Example 164, 3-(2-(4-(2-(2,6-dimethylpyridin-4-yl)-3-isopropyl-1H-indol-5-yl)piperidin-1-yl)-2-oxoethyl) oxazolidin-2-one] | 4.6 nM | 14200 nM | 39.7 nM |  |  | 
7 | Cc1cc(-c2[nH]c3ccc(C4CCN(C(=O)c5cscn5)CC4)cc3c2C(C)C)cc(C)n1 [Example 201, (4-(2-(2,6-dimethylpyridin-4-yl)-3-isopropyl-1H-indol-5-yl)piperidin-1-yl)(thiazol-4-yl)methanone] | 5 nM | 5500 nM | 84.1 nM |  |  | 
8 | Cc1cc(-c2[nH]c3ccc(C4CCN(C(=O)CNC(C)C)CC4)cc3c2C(C)C)cc(C)n1 [Example 344, 1-(4-(2-(2,6-dimethylpyridin-4-yl)-3-isopropyl-1H-indol-5-yl)piperidin-1-yl)-2-(isopropylamino)ethan-1-one] | 2.5 nM | 485 nM | 8.4 nM |  |  | 
9 | COC[C@@H]1CCCN1CC(=O)N1CCC(c2ccc3[nH]c(-c4cc(C)nc(C)c4)c(C(C)C)c3c2)CC1 [Example 370, (S)-1-(4-(2-(2,6-dimethylpyridin-4-yl)-3-isopropyl-1H-indol-5-yl)piperidin-1-yl)-2-(2-(methoxymethyl)pyrrolidin-1-yl)ethan-1-one] | 4.7 nM | 889 nM | 28.8 nM |  |  | 
10 | Cc1cc(-c2[nH]c3ccc(C4CCN(C(=O)CN(C)CCCO)CC4)cc3c2C(C)C)cc(C)n1 [Example 411, 1-(4-(2-(2,6-dimethylpyridin-4-yl)-3-isopropyl-1H-indol-5-yl)piperidin-1-yl)-2-((3-hydroxypropyl)(methyl)amino)ethan-1-one] | 2.9 nM | 1230 nM | 24 nM |  |  | 
11 | Cc1cc(-c2[nH]c3ccc(C4CCN(C(=O)CNCCO)CC4)cc3c2C(C)C)cc(C)n1 [Example 336, 1-(4-(2-(2,6-dimethylpyridin-4-yl)-3-isopropyl-1H-indol-5-yl)piperidin-1-yl)-2-((2-hydroxyethyl)amino)ethan-1-one] | 1.5 nM | 272 nM | 9.7 nM |  |  | 

The remaining lines, values ahead:

Row | IC50 (human TLR7; [1]) | IC50 (human TLR9; [2]) | IC50 (human TLR8; [3]) | IC50 (human TLR7; HEK-Blue cells, gardiquimod 7.5 μM) | IC50 (human TLR9; read-out: TLR9 IC50, HEK-Blue cells, ODN2006 5 nM) | IC50 (human TLR8; read-out: TLR8 IC50, HEK-Blue cells, R848 15.9 μM) | SMILES
12 | 77.7 nM | 14300 nM | 124 nM |  |  |  | Cc1cc(-c2[nH]c3ccc(C4CCN(C(=O)C5(C(F)(F)F)CC5)CC4)cc3c2C(C)C)ccn1 [Example 605, (4-(3-isopropyl-2-(2-methylpyridin-4-yl)-1H-indol-5-yl)piperidin-1-yl)(1-(trifluoromethyl)cyclopropyl)methanone]
13 | 2 nM | 2970 nM | 4 nM |  |  |  | Cc1cc(-c2[nH]c3ccc(C4CCN(C(=O)CN(C)CCO)CC4)cc3c2C(C)C)c(F)cn1 [Example 680, 1-(4-(2-(5-fluoro-2-methylpyridin-4-yl)-3-isopropyl-1H-indol-5-yl)piperidin-1-yl)-2-((2-hydroxyethyl)(methyl)amino)ethan-1-one]
14 | 3.7 nM | 143 nM | 2.5 nM |  |  |  | Cc1cc(-c2[nH]c3ccc(C4CCN(Cc5c[nH]cn5)CC4)cc3c2C(C)C)cc(C)n1 [Example 425, 5-(1-((1H-imidazol-4-yl)methyl)piperidin-4-yl)-2-(2,6-dimethylpyridin-4-yl)-3-isopropyl-1H-indole]
15 | 1520 nM | 655 nM | 257 nM |  |  |  | CCc1c(-c2ccnc(F)c2)[nH]c2ccc(C3CCN(C4CCN(CC(C)C)CC4)CC3)cc12 [Example 759, 3-ethyl-2-(2-fluoropyridin-4-yl)-5-(1′-isobutyl-[1,4′-bipiperidin]-4-yl)-1H-indole]
16 | 128 nM | 311 nM | 44.1 nM |  |  |  | CCc1c(-c2ccnc(C)c2)[nH]c2ccc(C3CCN(C(=O)C4CCCNC4)CC3)cc12 (stereo not drawn) [Example 624, (4-(3-ethyl-2-(2-methylpyridin-4-yl)-1H-indol-5-yl)piperidin-1-yl)(piperidin-3-yl)methanone]
17 | 8.3 nM | 255 nM | 7.2 nM |  |  |  | COc1ccc(CN2CCC(c3ccc4[nH]c(-c5cc(C)nc(C)c5)c(C(C)C)c4c3)CC2)cn1 [Example 424, 2-(2,6-dimethylpyridin-4-yl)-3-isopropyl-5-(1-((6-methoxypyridin-3-yl)methyl)piperidin-4-yl)-1H-indole]
18 | 164 nM | > 50000 nM | 820 nM |  |  |  | Cc1cc(-c2[nH]c3ccc(C4CCN(S(=O)(=O)CC(F)(F)F)CC4)cc3c2C(C)C)ccn1 [Example 546, 3-isopropyl-2-(2-methylpyridin-4-yl)-5-(1-((2,2,2-trifluoroethyl)sulfonyl)piperidin-4-yl)-1H-indole]
19 |  |  |  | 71.5 nM | 209 nM | 5.8 nM | Cc1cc(-c2[nH]c3ccc(C4CCN(Cc5cnc[nH]5)CC4)cc3c2C(C)C)ccn1 [Example 820, 5-(1-((1H-imidazol-5-yl)methyl)piperidin-4-yl)-3-isopropyl-2-(2-methylpyridin-4-yl)-1H-indole]
20 | 12.3 nM | > 50000 nM | 30.6 nM |  |  |  | Cc1cc(-c2[nH]c3ccc(C4CCN(C(=O)CN(C)C5COC5)CC4)cc3c2C(C)C)c(F)cn1 [Example 678, 1-(4-(2-(5-fluoro-2-methylpyridin-4-yl)-3-isopropyl-1H-indol-5-yl)piperidin-1-yl)-2-(methyl(oxetan-3-yl)amino)ethan-1-one]
21 | 38.7 nM | 40300 nM | 4.2 nM |  |  |  | Cc1cc(-c2[nH]c3ccc(C4CCN(Cc5ncco5)CC4)cc3c2C(C)C)c(C)cn1 [Example 699, 2-((4-(2-(2,5-dimethylpyridin-4-yl)-3-isopropyl-1H-indol-5-yl)piperidin-1-yl)methyl)oxazole]
